In PubChem BioAssay AID1918930 (Molecular Pharmacology Branch, DTP, NCI, 2023):

System: 233499-124-R-J3-PDC complex spheroid viability, % test/control
Assay: Anticancer human tumor 233499-124-R-J3-PDC patient-derived colon adenocarcinoma cell line growth inhibition
Details: for IC50: curve of first compound; for viability, T/C: stronger effect = lower value
Procedure, shortened: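 Multicellular complex spheroids of tumor cells with human endothelial cells (HUVEC) and mesenchymal stem cells; the LSD1 inhibitor iadademstat was combined with standard-of-care or investigational agents. Top concentration at or near clinical Cmax, half-log dilutions; final DMSO ≤0.25%.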

[1] = second compound 0.1 µM, first compound 0.00949 µM
[2] = second compound 0.1 µM, first compound 0.03 µM
[3] = second compound 0.1 µM, first compound 0.0949 µM
[4] = second compound 0.1 µM, first compound 0.3 µM
[5] = second compound 0.316 µM, first compound 0.00949 µM
[6] = second compound 0.316 µM, first compound 0.03 µM
[7] = second compound 0.316 µM, first compound 0.0949 µM
[8] = second compound 0.316 µM, first compound 0.3 µM
[9] = second compound 1 µM, first compound 0.00949 µM
[10] = second compound 1 µM, first compound 0.03 µM
[11] = second compound 1 µM, first compound 0.0949 µM
[12] = second compound 1 µM, first compound 0.3 µM
[13] = second compound 3.16 µM, first compound 0.00949 µM
[14] = second compound 3.16 µM, first compound 0.03 µM
[15] = second compound 3.16 µM, first compound 0.0949 µM
[16] = second compound 3.16 µM, first compound 0.3 µM
[17] = second compound 10 µM, first compound 0.00949 µM
[18] = second compound 10 µM, first compound 0.03 µM
[19] = second compound 10 µM, first compound 0.0949 µM
[20] = second compound 10 µM, first compound 0.3 µM
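Further: spheroids exposed to agents for one week before readout.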

For CC1COCCN1c1cc(C2(S(C)(=N)=O)CC2)nc(-c2ccnc3[nH]ccc23)n1 (stereo not given) + NC1CC1c1ccc(-c2cccc(O)c2)cc1, the IC50 (second compound 0.1 µM) was greater than 10 µM, the IC50 (second compound 0.316 µM) was greater than 10 µM and the IC50 (second compound 1 µM) was greater than 10 µM. The IC50 (second compound 3.16 µM) was 4.43 µM, the IC50 (second compound 10 µM) was 3.1 µM and the viability, T/C (second compound 0.1 µM, first compound 0.0316 µM) was 110%. The viability, T/C (second compound 0.1 µM, first compound 0.1 µM) was 98.1%, the viability, T/C (second compound 0.1 µM, first compound 0.316 µM) was 109% and the viability, T/C (second compound 0.1 µM, first compound 1 µM) was 95.5%. For the same compound, the viability, T/C (second compound 0.1 µM, first compound 3.16 µM) was 57%, the viability, T/C (second compound 0.1 µM, first compound 10 µM) was 65.6% and the viability, T/C (second compound 0.316 µM, first compound 0.0316 µM) was 105%. It also gave a viability, T/C (second compound 0.316 µM, first compound 0.1 µM) of 114%, a viability, T/C (second compound 0.316 µM, first compound 0.316 µM) of 101% and a viability, T/C (second compound 0.316 µM, first compound 1 µM) of 87.6%. The viability, T/C (second compound 0.316 µM, first compound 3.16 µM) was 60.5%, the viability, T/C (second compound 0.316 µM, first compound 10 µM) was 69.3% and the viability, T/C (second compound 1 µM, first compound 0.0316 µM) was 95.6%. The viability, T/C (second compound 1 µM, first compound 0.1 µM) was 92.5%, the viability, T/C (second compound 1 µM, first compound 0.316 µM) was 93.9% and the viability, T/C (second compound 1 µM, first compound 1 µM) was 87.8%. It also gave a viability, T/C (second compound 1 µM, first compound 3.16 µM) of 59.7%, a viability, T/C (second compound 1 µM, first compound 10 µM) of 52.7% and a viability, T/C (second compound 3.16 µM, first compound 0.0316 µM) of 108%. For the same compound, the viability, T/C (second compound 3.16 µM, first compound 0.1 µM) was 96.3%, the viability, T/C (second compound 3.16 µM, first compound 0.316 µM) was 90.3% and the viability, T/C (second compound 3.16 µM, first compound 1 µM) was 70.1%. It also gave a viability, T/C (second compound 3.16 µM, first compound 3.16 µM) of 48.6%, a viability, T/C (second compound 3.16 µM, first compound 10 µM) of 47.1% and a viability, T/C (second compound 10 µM, first compound 0.0316 µM) of 92.2%. The viability, T/C (second compound 10 µM, first compound 0.1 µM) was 77.5%, the viability, T/C (second compound 10 µM, first compound 0.316 µM) was 80.6% and the viability, T/C (second compound 10 µM, first compound 1 µM) was 78.2%. It also gave a viability, T/C (second compound 10 µM, first compound 3.16 µM) of 45.3% and a viability, T/C (second compound 10 µM, first compound 10 µM) of 53.8%.

In the case of CCN(c1cc(-c2ccc(CN3CCOCC3)cc2)cc(C(=O)NCc2c(C)cc(C)[nH]c2=O)c1C)C1CCOCC1 + NC1CC1c1ccc(-c2cccc(O)c2)cc1, the IC50 (second compound 0.1 µM) is reported as greater than 3 µM, the IC50 (second compound 0.316 µM) is reported as greater than 3 µM and the IC50 (second compound 1 µM) is reported as 2.5 µM. For the same compound, the IC50 (second compound 3.16 µM) was greater than 3 µM, the IC50 (second compound 10 µM) was 1.86 µM and the viability, T/C [1] was 97.3%. It also gave a viability, T/C [2] of 99.1%, a viability, T/C [3] of 111% and a viability, T/C [4] of 115%. For the same compound, the viability, T/C (second compound 0.1 µM, first compound 0.949 µM) was 98.4%, the viability, T/C (second compound 0.1 µM, first compound 3 µM) was 51.8% and the viability, T/C [5] was 117%. It also gave a viability, T/C [6] of 124%, a viability, T/C [7] of 112% and a viability, T/C [8] of 129%. For the same compound, the viability, T/C (second compound 0.316 µM, first compound 0.949 µM) was 98.5%, the viability, T/C (second compound 0.316 µM, first compound 3 µM) was 50.8% and the viability, T/C [9] was 97%. It also gave a viability, T/C [10] of 99.7%, a viability, T/C [11] of 93.7% and a viability, T/C [12] of 107%. The viability, T/C (second compound 1 µM, first compound 0.949 µM) was 85%, the viability, T/C (second compound 1 µM, first compound 3 µM) was 43.4% and the viability, T/C [13] was 99%. For the same compound, the viability, T/C [14] was 105%, the viability, T/C [15] was 90.5% and the viability, T/C [16] was 80.7%. It also gave a viability, T/C (second compound 3.16 µM, first compound 0.949 µM) of 77.2%, a viability, T/C (second compound 3.16 µM, first compound 3 µM) of 53.9% and a viability, T/C [17] of 79.3%. It also gave a viability, T/C [18] of 88.6%, a viability, T/C [19] of 84.7% and a viability, T/C [20] of 93.2%. It also gave a viability, T/C (second compound 10 µM, first compound 0.949 µM) of 65.8% and a viability, T/C (second compound 10 µM, first compound 3 µM) of 38.8%.

With Nc1ncn(C2CC(O)C(CO)S2)c(=O)n1 (stereo not given) + NC1CC1c1ccc(-c2cccc(O)c2)cc1 the IC50 (second compound 0.1 µM) was 0.1 µM, the IC50 (second compound 0.316 µM) was 0.102 µM and the IC50 (second compound 1 µM) was 0.124 µM. It also gave an IC50 (second compound 3.16 µM) of 0.128 µM, an IC50 (second compound 10 µM) of 0.0815 µM and a viability, T/C (second compound 0.1 µM, first compound 0.000949 µM) of 95.5%. The viability, T/C (second compound 0.1 µM, first compound 0.003 µM) was 94.1%, the viability, T/C [1] was 117% and the viability, T/C [2] was 101%. It also gave a viability, T/C [3] of 51.2%, a viability, T/C [4] of 25.6% and a viability, T/C (second compound 0.316 µM, first compound 0.000949 µM) of 108%. For the same compound, the viability, T/C (second compound 0.316 µM, first compound 0.003 µM) was 96.7%, the viability, T/C [5] was 114% and the viability, T/C [6] was 114%. The viability, T/C [7] was 51.2%, the viability, T/C [8] was 31.5% and the viability, T/C (second compound 1 µM, first compound 0.000949 µM) was 85.7%. For the same compound, the viability, T/C (second compound 1 µM, first compound 0.003 µM) was 96.4%, the viability, T/C [9] was 103% and the viability, T/C [10] was 87%. The viability, T/C [11] was 57.2%, the viability, T/C [12] was 26.7% and the viability, T/C (second compound 3.16 µM, first compound 0.000949 µM) was 81%. For the same compound, the viability, T/C (second compound 3.16 µM, first compound 0.003 µM) was 86.9%, the viability, T/C [13] was 85.8% and the viability, T/C [14] was 89.1%. For the same compound, the viability, T/C [15] was 58.4%, the viability, T/C [16] was 26% and the viability, T/C (second compound 10 µM, first compound 0.000949 µM) was 80.2%. The viability, T/C (second compound 10 µM, first compound 0.003 µM) was 83.4%, the viability, T/C [17] was 81.5% and the viability, T/C [18] was 83.8%. The viability, T/C [19] was 45% and the viability, T/C [20] was 34.7%.
